# According to US9249127B2 (Orion Corporation, priority 2012, dated 2016):
# Biological target: T1, alpha2A receptor (Homo sapiens, UniProt P08913)
# T1 sequence (P08913 1-465): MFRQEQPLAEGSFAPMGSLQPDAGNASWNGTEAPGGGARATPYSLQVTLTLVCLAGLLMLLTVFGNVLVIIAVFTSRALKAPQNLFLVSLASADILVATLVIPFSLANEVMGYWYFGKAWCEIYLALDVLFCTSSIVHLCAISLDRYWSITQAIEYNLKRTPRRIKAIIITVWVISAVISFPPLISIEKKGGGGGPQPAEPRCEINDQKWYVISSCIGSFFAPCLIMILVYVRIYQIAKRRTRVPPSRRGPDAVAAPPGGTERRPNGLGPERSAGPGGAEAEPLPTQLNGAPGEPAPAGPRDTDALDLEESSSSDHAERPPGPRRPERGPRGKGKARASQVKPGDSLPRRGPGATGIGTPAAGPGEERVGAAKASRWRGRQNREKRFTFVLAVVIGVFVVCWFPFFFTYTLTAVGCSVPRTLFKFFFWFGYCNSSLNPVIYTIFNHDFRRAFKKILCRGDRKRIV
# Test: Alpha2A agonistic activity in vitro
# Type: cell-based
# Conditions: Alpha2A Agonism pEC50, in vitro
row,SMILES,EC50 [nM]
1,"Cc1cccc2c1CC(CC(F)F)OC2C1=NCCN1 (stereo not shown) [Example 84, 2-(3-(2,2-Difluoroethyl)-5-methylisochroman-1-yl)-4,5-dihydro-1H-imidazole]",100
2,"CSc1cccc2c1CCOC2C1=NCCN1 (stereo not shown) [Example 87, 2-(5-(Methylthio)isochroman-1-yl)-4,5-dihydro-1H-imidazole]",63.1
3,"FC(F)Oc1cccc2c1CCOC2C1=NCCN1 (stereo not shown) [Example 90, 2-(5-(Difluoromethoxy)isochroman-1-yl)-4,5-dihydro-1H-imidazole]",39.8
4,"CC[C@@H]1Cc2c(OC)cccc2C(C2=NCCN2)O1 (stereo partly drawn) [Example 91, 2-((3R)-3-ethyl-5-methoxyisochroman-1-yl)-4,5-dihydro-1H-imidazole]",39.8
5,"C[C@@H]1Cc2c(OC(F)F)cccc2C(C2=NCCN2)O1 (stereo partly drawn) [Example 93, 2-((3R)-5-(difluoromethoxy)-3-methylisochroman-1-yl)-4,5-dihydro-1H-imidazole]",31.6
6,"CC1(C2=NCCN2)OCc2cccc3cccc1c23 (stereo not shown) [Example 98, 2-(1-Methyl-1,3-dihydrobenzo[de]isochromen-1-yl)-4,5-dihydro-1H-imidazole]",12.6
7,"FC(F)c1cccc2c1CCOC2C1=NCCN1 (stereo not shown) [Example 99, 2-(5-(Difluoromethyl)isochroman-1-yl)-4,5-dihydro-1H-imidazole]",12.6
8,"c1cc2c3c(cccc3c1)C(C1=NCCN1)OC2 (stereo not shown) [Example 102, 2-(1,3-Dihydrobenzo[de]isochromen-1-yl)-4,5-dihydro-1H-imidazole]",2.51
9,"CC1OC(C2=NCCN2)c2cccc3cccc1c23 (stereo not shown) [Example 104, 2-(3-Methyl-1,3-dihydrobenzo[de]isochromen-1-yl)-4,5-dihydro-1H-imidazole]",3.16
10,"CCC1OC(C2=NCCN2)c2cccc3cccc1c23 (stereo not shown) [Example 105, 2-(3-Ethyl-1,3-dihydrobenzo[de]isochromen-1-yl)-4,5-dihydro-1H-imidazole]",39.8

# Same assay, conditions: in vitro
row,SMILES,Alpha2A Intrinsic Activity
1,"COc1cccc2c1C[C@@H](C)OC2(C)C1=NCCN1 (stereo partly drawn) [Example 71, 2-((3R)-5-methoxy-1,3-dimethylisochroman-1-yl)-4,5-dihydro-1H-imidazole]",0.33
2,"FC(F)(F)Cc1cccc2c1CCOC2C1=NCCN1 (stereo not shown) [Example 72, 2-(5-(2,2,2-Trifluoroethyl)isochroman-1-yl)-4,5-dihydro-1H-imidazole]",0.09
3,"CCc1cccc2c1C[C@@H](C)OC2(C)C1=NCCN1 (stereo partly drawn) [Example 73, 2-((3R)-5-ethyl-1,3-dimethylisochroman-1-yl)-4,5-dihydro-1H-imidazole]",0.19
4,"COCC1Cc2c(C)cccc2C(C2=NCCN2)O1 (stereo not shown) [Example 74, 2-(5-Methyl-3-(methoxymethyl)isochroman-1-yl)-4,5-dihydro-1H-imidazole]",0.35
5,"Cc1cc(O)cc2c1CCOC2C1=NCCN1 (stereo not shown) [Example 75, 1-(4,5-Dihydro-1H-imidazol-2-yl)-5-methylisochroman-7-ol]",0.64
6,"CCC1Cc2c(O)cccc2C(C2=NCCN2)O1 (stereo not shown) [Example 76, 1-(4,5-Dihydro-1H-imidazol-2-yl)-3-ethylisochroman-5-ol]",0.15
7,"Cc1cccc2c1CCSC2(C)C1=NCCN1 (stereo not shown) [Example 78, 2-(1,5-Dimethylisothiochroman-1-yl)-4,5-dihydro-1H-imidazole]",0.62
8,"FC(F)(F)Oc1cccc2c1CCOC2C1=NCCN1 (stereo not shown) [Example 79, 2-(5-(Trifluoromethoxy)isochroman-1-yl)-4,5-dihydro-1H-imidazole]",0.30
9,"Cc1cccc2c1CC(CCF)OC2C1=NCCN1 (stereo not shown) [Example 81, 2-(3-(2-Fluoroethyl)-5-methylisochroman-1-yl)-4,5-dihydro-1H-imidazole]",0.54
10,"Cc1cccc2c1CC(CC(F)F)OC2C1=NCCN1 (stereo not shown) [Example 84, 2-(3-(2,2-Difluoroethyl)-5-methylisochroman-1-yl)-4,5-dihydro-1H-imidazole]",0.45
11,"COc1cc(C)c2c(c1)C(C1=NCCN1)OC(C)C2 (stereo not shown) [Example 85, 2-(7-Methoxy-3,5-dimethylisochroman-1-yl)-4,5-dihydro-1H-imidazole]",0.22
12,"CSc1cccc2c1CCOC2C1=NCCN1 (stereo not shown) [Example 87, 2-(5-(Methylthio)isochroman-1-yl)-4,5-dihydro-1H-imidazole]",0.75
13,"FC(F)Oc1cccc2c1CCOC2C1=NCCN1 (stereo not shown) [Example 90, 2-(5-(Difluoromethoxy)isochroman-1-yl)-4,5-dihydro-1H-imidazole]",0.66
14,"CC[C@@H]1Cc2c(OC)cccc2C(C2=NCCN2)O1 (stereo partly drawn) [Example 91, 2-((3R)-3-ethyl-5-methoxyisochroman-1-yl)-4,5-dihydro-1H-imidazole]",0.51
15,"C[C@@H]1Cc2c(OC(F)F)cccc2C(C2=NCCN2)O1 (stereo partly drawn) [Example 93, 2-((3R)-5-(difluoromethoxy)-3-methylisochroman-1-yl)-4,5-dihydro-1H-imidazole]",0.64
16,"CC1(C2=NCCN2)OCc2cccc3cccc1c23 (stereo not shown) [Example 98, 2-(1-Methyl-1,3-dihydrobenzo[de]isochromen-1-yl)-4,5-dihydro-1H-imidazole]",0.58
17,"FC(F)c1cccc2c1CCOC2C1=NCCN1 (stereo not shown) [Example 99, 2-(5-(Difluoromethyl)isochroman-1-yl)-4,5-dihydro-1H-imidazole]",0.73
18,"c1cc2c3c(cccc3c1)C(C1=NCCN1)OC2 (stereo not shown) [Example 102, 2-(1,3-Dihydrobenzo[de]isochromen-1-yl)-4,5-dihydro-1H-imidazole]",0.82
19,"CC1OC(C2=NCCN2)c2cccc3cccc1c23 (stereo not shown) [Example 104, 2-(3-Methyl-1,3-dihydrobenzo[de]isochromen-1-yl)-4,5-dihydro-1H-imidazole]",0.95
20,"CCC1OC(C2=NCCN2)c2cccc3cccc1c23 (stereo not shown) [Example 105, 2-(3-Ethyl-1,3-dihydrobenzo[de]isochromen-1-yl)-4,5-dihydro-1H-imidazole]",0.66

# Same assay, conditions: in vitro; read-out: Alpha2A Agonism pEC50 (converted)
row,SMILES,EC50 [nM]
1,"COc1cccc2c1C[C@@H](C)OC2(C)C1=NCCN1 (stereo partly drawn) [Example 71, 2-((3R)-5-methoxy-1,3-dimethylisochroman-1-yl)-4,5-dihydro-1H-imidazole]",2000
2,"FC(F)(F)Cc1cccc2c1CCOC2C1=NCCN1 (stereo not shown) [Example 72, 2-(5-(2,2,2-Trifluoroethyl)isochroman-1-yl)-4,5-dihydro-1H-imidazole]",1580
3,"CCc1cccc2c1C[C@@H](C)OC2(C)C1=NCCN1 (stereo partly drawn) [Example 73, 2-((3R)-5-ethyl-1,3-dimethylisochroman-1-yl)-4,5-dihydro-1H-imidazole]",1580
4,"COCC1Cc2c(C)cccc2C(C2=NCCN2)O1 (stereo not shown) [Example 74, 2-(5-Methyl-3-(methoxymethyl)isochroman-1-yl)-4,5-dihydro-1H-imidazole]",794
5,"Cc1cc(O)cc2c1CCOC2C1=NCCN1 (stereo not shown) [Example 75, 1-(4,5-Dihydro-1H-imidazol-2-yl)-5-methylisochroman-7-ol]",631
6,"CCC1Cc2c(O)cccc2C(C2=NCCN2)O1 (stereo not shown) [Example 76, 1-(4,5-Dihydro-1H-imidazol-2-yl)-3-ethylisochroman-5-ol]",631
7,"Cc1cccc2c1CCSC2(C)C1=NCCN1 (stereo not shown) [Example 78, 2-(1,5-Dimethylisothiochroman-1-yl)-4,5-dihydro-1H-imidazole]",501
8,"FC(F)(F)Oc1cccc2c1CCOC2C1=NCCN1 (stereo not shown) [Example 79, 2-(5-(Trifluoromethoxy)isochroman-1-yl)-4,5-dihydro-1H-imidazole]",398
9,"Cc1cccc2c1CC(CCF)OC2C1=NCCN1 (stereo not shown) [Example 81, 2-(3-(2-Fluoroethyl)-5-methylisochroman-1-yl)-4,5-dihydro-1H-imidazole]",158
10,"COc1cc(C)c2c(c1)C(C1=NCCN1)OC(C)C2 (stereo not shown) [Example 85, 2-(7-Methoxy-3,5-dimethylisochroman-1-yl)-4,5-dihydro-1H-imidazole]",1000
